Structures can show the parent of a compound that is named as a salt. Where two headings read alike, the source gives them in different places. Some results are limits rather than exact numbers.

Consider six compounds from patent publication US9309242B2, “Substituted pyrido[2,3-b]pyrazines as FGFR kinase inhibitors” (priority 2011, dated 2016).

The target of one assay is FGFR1 (h) (Homo sapiens, UniProt P11362). Nature of the assay: FGFR1 (enzymatic assay), TR-FRET. Type of assay: biochemical. To be noted: read-out: FGFR 1 pIC50 (converted). (Time-resolved FRET reads energy transfer from a long-lived donor to a nearby acceptor.)
The target in the next assay is FGFR2 (h) (Homo sapiens, UniProt P21802). Nature of the assay: FGFR2 (enzymatic assay), TR-FRET. Type of assay: biochemical. To be noted: enzymatic assay, read-out: FGFR 2 pIC50 (converted). As to the method:
In a final reaction volume of 30 μL, FGFR2 (h) (150 ng/ml) was incubated with 50 mM HEPES pH 7.5, 6 mM MnCl2, 1 mM DTT, 0.1 mM Na3VO4, 0.01% Triton-X-100, 500 nM Btn-Flt3 and 0.4 μM ATP in the presence of compound (1% DMSO final).

The target in a further assay is FGFR3 (h) (Homo sapiens, UniProt P22607). Nature of the assay: FGFR3 (enzymatic assay), TR-FRET. In kind it is biochemical. To be noted: read-out: FGFR 3 pIC50 (converted). The text has this: Time-Resolved Fluorescence Resonance Energy Transfer (TR-FRET) signal (ex340 nm.
Sequence of FGFR3 (h) (P22607 23-806): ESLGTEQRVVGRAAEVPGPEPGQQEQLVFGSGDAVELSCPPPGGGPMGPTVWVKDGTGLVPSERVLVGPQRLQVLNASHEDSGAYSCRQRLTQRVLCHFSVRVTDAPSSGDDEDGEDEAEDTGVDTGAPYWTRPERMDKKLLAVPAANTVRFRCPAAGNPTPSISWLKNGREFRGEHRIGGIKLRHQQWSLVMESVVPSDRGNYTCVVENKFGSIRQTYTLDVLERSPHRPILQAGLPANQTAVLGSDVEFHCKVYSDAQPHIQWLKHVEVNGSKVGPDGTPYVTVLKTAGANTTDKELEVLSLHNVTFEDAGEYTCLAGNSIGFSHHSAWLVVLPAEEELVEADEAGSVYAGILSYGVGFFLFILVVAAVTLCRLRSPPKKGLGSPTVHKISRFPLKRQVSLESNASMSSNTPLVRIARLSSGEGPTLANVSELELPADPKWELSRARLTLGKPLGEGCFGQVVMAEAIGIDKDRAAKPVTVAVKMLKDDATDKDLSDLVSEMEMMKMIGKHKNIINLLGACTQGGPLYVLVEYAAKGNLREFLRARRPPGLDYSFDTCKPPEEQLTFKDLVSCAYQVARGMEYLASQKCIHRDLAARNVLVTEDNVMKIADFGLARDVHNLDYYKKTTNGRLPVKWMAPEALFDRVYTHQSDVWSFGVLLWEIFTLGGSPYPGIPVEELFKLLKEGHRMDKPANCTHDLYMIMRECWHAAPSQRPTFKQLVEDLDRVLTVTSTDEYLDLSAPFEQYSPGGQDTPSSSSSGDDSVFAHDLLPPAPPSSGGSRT
Another assay deals with FGFR4 (h) (Homo sapiens, UniProt P22455). The assay is described as follows: FGFR4 (enzymatic assay), TR-FRET. To be noted: FGFR 4 pIC50, enzymatic assay. Type of assay: biochemical.
In the next assay the target is KDR (h) (Homo sapiens, UniProt P35968). Nature of the assay: KDR (VEGFR2) (enzymatic assay), TR-FRET. Type of assay: biochemical. To be noted: read-out: VEGFR 2 (KDR) pIC50 (converted). How it is done:
KDR (VEGFR2) (Enzymatic Assay)
In a final reaction volume of 30 μL, KDR (h) (150 ng/ml) was incubated with 50 mM HEPES pH 7.5, 6 mM MnCl2, 1 mM DTT, 0.1 mM Na3VO4, 0.01% Triton-X-100, 500 nM Btn-Flt3 and 3 μM ATP in the presence of compound (1% DMSO final). After incubation for 120 minutes at room temperature the reaction was stopped with 2.27 nM EU-anti P-Tyr, 7 mM EDTA, 31.25 nM SA-XL-665 and 0.02% BSA which was present for 60 minutes at room temperature. Time-Resolved Fluorescence Resonance Energy Transfer (TR-FRET) signal (ex340 nm. Em 620 nm, em 655 nm) was measured afterwards and results are expressed in RFU (Relative Fluorescence Units).

Assay [1] concerns the target T1, Ba/F3-FGFR1-transfected cells (Homo sapiens, UniProt P11362).
T1 construct: BAF3-FGFR1 (MIN IL3) pIC50; other: minus IL3
Nature of the assay: Ba/F3-FGFR1 (minus IL3) cellular proliferation assay, Alamar Blue. In kind it is cell-based. As to the method: (§1) Ba/F3-FGFR1 (Minus IL3 or Plus IL3) (Cellular Proliferation Assay)
(§2) In a 384 well plate, 100 nl of compound dilution in DMSO was sprayed before adding 50 μl cell culture medium (phenol red free RPMI-1640, 10% FBS, 2 mM L-Glutamine and 50 μg/ml Gentamycin) containing 20000 cells per well of Ba/F3-FGFR1-transfected cells. Cells were put in an incubator at 37° C. and 5% CO2. After 24 hours, 10 μl of Alamar Blue solution (0.5 mM K3Fe(CN)6, 0.5 mM K4Fe(CN)6, 0.15 mM Resazurin and 100 mM Phosphate Buffer) was added to the wells, incubated for 4 hours at 37° C. and 5% CO2 before RFU's (Relative Fluorescence Units) (ex. 540 nm., em. 590 nm.) were measured in a fluororescence plate reader.
In general terms: Alamar Blue is a resazurin reagent that responds to reducing activity.

Assay [2] has as its system Ba/F3-FGFR1-transfected cells. Nature of the assay: Ba/F3-FGFR1 (plus IL3) cellular proliferation assay, counterscreen with 10 ng/ml murine IL3. Type of assay: cell-based. To be noted: for IC50: read-out: BAF3-FGFR1 (PLUS IL3) pIC50 (converted); for BAF3-FGFR1 (PLUS IL3) pIC50: plus IL3 (10 ng/ml murine IL3, counterscreen). How it is done:
as §1, §2
(§3) As a counterscreen the same experiment was performed in the presence of 10 ng/ml murine IL3.
On the technique in general: The purpose of a counterscreen is to sort out artefacts and off-target activity.

Assay [3] deals with T2, Ba/F3-FGFR3-transfected cells (Homo sapiens, UniProt P22607).
T2 construct: BAF3-FGFR3 (MIN IL3) pIC50; other: minus IL3
The assay is described as follows: Ba/F3-FGFR3 (minus IL3) cellular proliferation assay, Alamar Blue. Type of assay: cell-based. How it is done: (§4) Ba/F3-FGFR3 (Minus IL3 or Plus IL3) (Cellular Proliferation Assay)
as §2, with “Ba/F3-FGFR3-transfected” for “Ba/F3-FGFR1-transfected”, “reader. […]” for “reader.”

For assay [4], the system named is Ba/F3-FGFR3-transfected cells. The assay is described as follows: Ba/F3-FGFR3 (plus IL3) cellular proliferation assay, counterscreen with 10 ng/ml murine IL3. To be noted: for IC50: read-out: BAF3-FGFR3 (PLUS IL3) pIC50 (converted); for BAF3-FGFR3 (PLUS IL3) pIC50: plus IL3 (10 ng/ml murine IL3, counterscreen). In kind it is cell-based. As to the method: as §4
as §2, with “Ba/F3-FGFR3-transfected” for “Ba/F3-FGFR1-transfected”
as §3

For assay [5], the target named is T3, Ba/F3-KDR-transfected cells (Homo sapiens, UniProt P35968).
T3 construct: BAF3-KDR (MIN IL3) pIC50; other: minus IL3
T3 sequence (P35968 whole entry, change not shown): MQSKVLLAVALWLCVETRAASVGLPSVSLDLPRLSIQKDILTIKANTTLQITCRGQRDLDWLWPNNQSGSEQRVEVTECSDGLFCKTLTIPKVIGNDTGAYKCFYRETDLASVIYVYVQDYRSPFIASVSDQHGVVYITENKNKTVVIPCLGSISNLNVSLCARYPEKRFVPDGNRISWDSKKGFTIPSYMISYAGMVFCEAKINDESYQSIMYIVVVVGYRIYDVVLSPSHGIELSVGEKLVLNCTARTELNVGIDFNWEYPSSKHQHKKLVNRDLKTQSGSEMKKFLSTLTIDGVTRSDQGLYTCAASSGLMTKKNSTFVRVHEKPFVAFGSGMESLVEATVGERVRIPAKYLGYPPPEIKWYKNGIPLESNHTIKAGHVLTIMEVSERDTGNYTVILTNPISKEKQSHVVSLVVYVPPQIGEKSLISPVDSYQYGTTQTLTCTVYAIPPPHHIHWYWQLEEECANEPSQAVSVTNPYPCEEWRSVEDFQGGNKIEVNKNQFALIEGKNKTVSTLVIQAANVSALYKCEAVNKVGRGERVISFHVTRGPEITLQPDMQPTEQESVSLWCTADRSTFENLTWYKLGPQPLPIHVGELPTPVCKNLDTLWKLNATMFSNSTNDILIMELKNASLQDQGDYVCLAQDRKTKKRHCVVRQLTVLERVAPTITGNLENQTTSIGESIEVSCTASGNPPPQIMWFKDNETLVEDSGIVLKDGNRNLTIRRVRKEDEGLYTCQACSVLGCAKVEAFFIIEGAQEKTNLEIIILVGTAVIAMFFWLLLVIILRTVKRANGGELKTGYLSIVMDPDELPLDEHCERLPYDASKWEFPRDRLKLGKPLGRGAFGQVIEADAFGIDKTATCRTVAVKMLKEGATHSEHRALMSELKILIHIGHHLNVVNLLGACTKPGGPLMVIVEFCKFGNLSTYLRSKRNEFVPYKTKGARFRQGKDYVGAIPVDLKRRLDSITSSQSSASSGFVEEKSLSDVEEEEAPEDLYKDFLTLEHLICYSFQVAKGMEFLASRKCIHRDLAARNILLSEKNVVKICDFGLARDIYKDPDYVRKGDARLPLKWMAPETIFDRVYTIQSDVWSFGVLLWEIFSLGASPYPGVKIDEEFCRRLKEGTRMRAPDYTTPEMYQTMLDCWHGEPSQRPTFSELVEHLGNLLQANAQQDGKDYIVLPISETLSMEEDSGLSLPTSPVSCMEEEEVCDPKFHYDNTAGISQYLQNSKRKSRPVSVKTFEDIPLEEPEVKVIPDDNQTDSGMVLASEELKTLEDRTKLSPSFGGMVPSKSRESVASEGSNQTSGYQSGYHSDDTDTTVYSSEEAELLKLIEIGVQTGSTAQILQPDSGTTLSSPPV
Nature of the assay: Ba/F3-KDR (minus IL3) cellular proliferation assay, Alamar Blue. Type of assay: cell-based. As to the method: (§5) Ba/F3-KDR (Minus IL3 or Plus IL3) (Cellular Proliferation Assay)
as §2, with “n1” for “nl”, “Ba/F3-KDR-transfected” for “Ba/F3-FGFR1-transfected”, “reader. […]” for “reader.”

Assay [6] deals with Ba/F3-KDR-transfected cells. Nature of the assay: Ba/F3-KDR (plus IL3) cellular proliferation assay, counterscreen with 10 ng/ml murine IL3. In kind it is cell-based. To be noted: for IC50: read-out: BAF3-KDR (PLUS IL3) pIC50 (converted); for BAF3-KDR (PLUS IL3) pIC50: plus IL3 (10 ng/ml murine IL3, counterscreen). How it is done:
as §5
as §2, with “n1” for “nl”, “Ba/F3-KDR-transfected” for “Ba/F3-FGFR1-transfected”
as §3

The target of assay [7] is Ba/F3-FGFR4-transfected cells (Homo sapiens, UniProt P22455). Nature of the assay: Ba/F3-FGFR4 cellular proliferation assay, Alamar Blue. Type of assay: cell-based. How it is done: Ba/F3-FGFR4 (Cellular Proliferation Assay)
Sequence of Ba/F3-FGFR4-transfected cells (P22455 whole entry, change not shown): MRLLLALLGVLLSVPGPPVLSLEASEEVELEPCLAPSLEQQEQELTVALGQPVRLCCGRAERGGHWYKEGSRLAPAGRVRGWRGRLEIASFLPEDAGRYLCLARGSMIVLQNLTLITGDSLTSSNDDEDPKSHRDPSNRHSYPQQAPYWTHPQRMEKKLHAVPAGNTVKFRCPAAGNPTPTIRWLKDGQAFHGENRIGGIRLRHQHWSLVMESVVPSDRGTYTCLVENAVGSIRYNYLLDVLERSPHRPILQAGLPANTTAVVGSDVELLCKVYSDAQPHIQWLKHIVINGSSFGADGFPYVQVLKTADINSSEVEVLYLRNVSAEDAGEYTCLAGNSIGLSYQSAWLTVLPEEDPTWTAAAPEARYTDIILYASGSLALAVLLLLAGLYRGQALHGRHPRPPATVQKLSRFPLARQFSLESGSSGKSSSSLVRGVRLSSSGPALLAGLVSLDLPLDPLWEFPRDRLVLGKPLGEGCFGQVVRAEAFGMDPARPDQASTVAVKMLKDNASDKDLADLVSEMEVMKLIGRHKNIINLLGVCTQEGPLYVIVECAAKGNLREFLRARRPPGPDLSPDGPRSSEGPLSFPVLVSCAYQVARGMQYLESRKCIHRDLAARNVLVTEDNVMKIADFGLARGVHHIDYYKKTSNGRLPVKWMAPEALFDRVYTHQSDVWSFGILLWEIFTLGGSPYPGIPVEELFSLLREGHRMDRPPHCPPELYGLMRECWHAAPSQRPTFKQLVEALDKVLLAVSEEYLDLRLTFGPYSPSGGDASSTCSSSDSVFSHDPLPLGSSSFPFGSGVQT
as §2, with “n1” for “nl”, “Ba/F3-FGFR4-transfected” for “Ba/F3-FGFR1-transfected”

Setting [8] is: average values if tested multiple times.

T1 sequence (P11362 whole entry, change not shown): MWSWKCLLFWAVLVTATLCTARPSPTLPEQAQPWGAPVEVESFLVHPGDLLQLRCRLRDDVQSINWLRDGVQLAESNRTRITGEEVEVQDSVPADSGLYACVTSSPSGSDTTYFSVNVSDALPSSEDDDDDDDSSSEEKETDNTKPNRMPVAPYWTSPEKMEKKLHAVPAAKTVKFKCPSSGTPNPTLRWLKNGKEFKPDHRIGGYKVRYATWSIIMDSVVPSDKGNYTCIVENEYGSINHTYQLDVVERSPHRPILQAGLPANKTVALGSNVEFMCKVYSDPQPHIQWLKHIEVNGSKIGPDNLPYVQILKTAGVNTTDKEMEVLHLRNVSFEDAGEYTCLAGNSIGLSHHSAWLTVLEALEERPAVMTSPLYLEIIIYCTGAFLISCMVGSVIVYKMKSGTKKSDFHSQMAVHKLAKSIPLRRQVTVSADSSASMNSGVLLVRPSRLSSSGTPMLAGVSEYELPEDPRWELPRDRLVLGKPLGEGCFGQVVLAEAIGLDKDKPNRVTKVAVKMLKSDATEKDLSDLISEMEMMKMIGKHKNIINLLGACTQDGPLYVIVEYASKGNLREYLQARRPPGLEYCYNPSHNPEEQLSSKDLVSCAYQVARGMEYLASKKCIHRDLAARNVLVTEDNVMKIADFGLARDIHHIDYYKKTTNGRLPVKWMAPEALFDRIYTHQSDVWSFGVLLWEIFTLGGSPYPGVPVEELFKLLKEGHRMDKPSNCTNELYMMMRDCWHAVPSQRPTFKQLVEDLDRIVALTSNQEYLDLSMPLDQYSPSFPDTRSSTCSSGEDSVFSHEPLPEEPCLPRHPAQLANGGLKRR
Sequence of FGFR2 (h) (P21802 22-821): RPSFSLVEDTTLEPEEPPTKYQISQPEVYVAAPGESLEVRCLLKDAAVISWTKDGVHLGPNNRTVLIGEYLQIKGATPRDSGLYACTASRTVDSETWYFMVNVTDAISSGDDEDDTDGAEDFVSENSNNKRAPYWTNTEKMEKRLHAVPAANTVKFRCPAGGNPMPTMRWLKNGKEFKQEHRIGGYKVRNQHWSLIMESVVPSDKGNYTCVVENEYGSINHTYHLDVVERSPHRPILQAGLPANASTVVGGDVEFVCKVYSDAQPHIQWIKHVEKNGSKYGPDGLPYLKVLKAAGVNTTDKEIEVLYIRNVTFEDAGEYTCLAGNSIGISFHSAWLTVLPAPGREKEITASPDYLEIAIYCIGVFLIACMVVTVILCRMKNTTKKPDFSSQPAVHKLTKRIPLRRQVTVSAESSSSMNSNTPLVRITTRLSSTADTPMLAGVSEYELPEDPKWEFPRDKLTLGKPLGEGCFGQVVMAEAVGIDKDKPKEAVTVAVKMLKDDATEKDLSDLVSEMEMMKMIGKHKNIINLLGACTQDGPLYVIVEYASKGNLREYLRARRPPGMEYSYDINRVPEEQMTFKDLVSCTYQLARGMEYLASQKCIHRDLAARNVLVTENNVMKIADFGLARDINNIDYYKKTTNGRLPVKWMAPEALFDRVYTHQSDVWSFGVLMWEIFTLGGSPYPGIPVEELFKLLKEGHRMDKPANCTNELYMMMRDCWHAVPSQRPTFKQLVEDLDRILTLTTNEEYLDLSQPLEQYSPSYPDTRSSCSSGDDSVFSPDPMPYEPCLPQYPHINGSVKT

As to `COc1cc(OC)c(F)c(N(CC(N)=O)c2ccc3ncc(-c4cnn(C)c4)nc3n2)c1` [Compound 239], the IC50 at FGFR1 (h) was 5.37 nM; on FGFR2 (h), 7.94 nM; on FGFR3 (h) it was 5.25 nM; at FGFR4 (h) it was 35.5 nM; at KDR (h), 148 nM; in assay [2] it was more than 10000 nM. Besides, the IC50 in [4] and in assay [6] was more than 10000 nM in each case. Further, the “BAF3-FGFR1 (MIN IL3) pIC50” value in assay [1] is listed as 6.44. The “BAF3-FGFR3 (MIN IL3) pIC50” value in [3] came to 6.51. The “BAF3-KDR (MIN IL3) pIC50” value in [5] came out at 5.27. In assay [7], the “BAF3-FGFR4 pIC50” value was 5.87.
As to `COc1cc(OC)c(F)c(N(Cc2nnc(NCCO)o2)c2ccc3ncc(-c4cnn(C)c4)nc3n2)c1` [Compound 283], the IC50 at FGFR1 (h) is approximately 7.08 nM; at FGFR2 (h), 5.13 nM; on FGFR3 (h), 5.13 nM; on FGFR4 (h) it was 21.4 nM; on KDR (h) it was 105 nM; in assay [2], more than 10000 nM. Moreover, the IC50 in assay [4] and in [6] was more than 10000 nM each time. Besides, in assay [1], the “BAF3-FGFR1 (MIN IL3) pIC50” value worked out at 5.18. The “BAF3-FGFR3 (MIN IL3) pIC50” value in assay [3] worked out at 5.26. The “BAF3-KDR (MIN IL3) pIC50” value in [5] is reported as less than 5. Besides, the “BAF3-FGFR4 pIC50” value in assay [7] is listed as less than 5.
As to `COc1cc(/N=c2\ccc3ncc(-c4cnn(C)c4)nc3n2CC2CCC(=O)N2C)c(F)c(OC)c1` (stereo not drawn) [Compound 160], the IC50 was 1.17 nM on FGFR1 (h); 1.82 nM at FGFR2 (h); 1.07 nM at FGFR3 (h); approximately 3.39 nM against FGFR4 (h); 7.24 nM at KDR (h). For the same compound, in assay [1], the “BAF3-FGFR1 (MIN IL3) pIC50” value is given as 7.58. The “BAF3-FGFR1 (PLUS IL3) pIC50” value in assay [2] is reported as less than 5. Also, the “BAF3-FGFR3 (MIN IL3) pIC50” value in assay [3] was 7.20. Further, in assay [4], the “BAF3-FGFR3 (PLUS IL3) pIC50” value is less than 5. Moreover, the “BAF3-KDR (MIN IL3) pIC50” value in assay [5] was 5.89. Further, the “BAF3-KDR (PLUS IL3) pIC50” value in [6] is less than 5. Moreover, in assay [7], the “BAF3-FGFR4 pIC50” value stood at 6.99.
Regarding `COc1cc(OC)c(F)c(N(CC2CCC(=O)N2)c2ccc3ncc(-c4cnn(C)c4)nc3n2)c1F` (stereo not drawn) [Compound 48], the IC50 at FGFR1 (h) (setting [8]) is 1.26 nM; at FGFR2 (h) (setting [8]), 3.24 nM; on FGFR3 (h) (setting [8]) it was 1.7 nM; on FGFR4 (h) (setting [8]), 2.19 nM; at KDR (h) (setting [8]), 24.5 nM. For the same compound, in assay [1], the “BAF3-FGFR1 (MIN IL3) pIC50” value is recorded as 8.00. Also, the “BAF3-FGFR1 (PLUS IL3) pIC50” value in assay [2] is reported as less than 5. In assay [3], the “BAF3-FGFR3 (MIN IL3) pIC50” value is listed as approximately 7.94. For the same compound, the “BAF3-FGFR3 (PLUS IL3) pIC50” value in assay [4] is listed as less than 5. Besides, the “BAF3-KDR (MIN IL3) pIC50” value in [5] was 6.03. In addition, the “BAF3-KDR (PLUS IL3) pIC50” value in [6] is listed as less than 5. Moreover, the “BAF3-FGFR4 pIC50” value in assay [7] stood at 6.89.
As for `COc1cc(OC)c(F)c(N(Cc2ncc[nH]2)c2ccc3ncc(-c4cnn(C)c4)nc3n2)c1` [23-lactate salt], the IC50 is 0.501 nM on FGFR1 (h) (setting [8]); 1.38 nM at FGFR2 (h) (setting [8]); 0.955 nM at FGFR3 (h) (setting [8]); 1.1 nM at FGFR4 (h) (setting [8]); 6.61 nM at KDR (h) (setting [8]). Moreover, the “BAF3-FGFR1 (MIN IL3) pIC50” value in assay [1] amounted to 8.29. In assay [2], the “BAF3-FGFR1 (PLUS IL3) pIC50” value is less than 5. In addition, the “BAF3-FGFR3 (MIN IL3) pIC50” value in assay [3] is listed as approximately 8.14. In assay [4], the “BAF3-FGFR3 (PLUS IL3) pIC50” value is less than 5. Besides, the “BAF3-KDR (MIN IL3) pIC50” value in assay [5] is given as 6.83. In [6], the “BAF3-KDR (PLUS IL3) pIC50” value was less than 5. Further, the “BAF3-FGFR4 pIC50” value in assay [7] was found to be 8.13.
In the case of `COc1cc(OC)c(F)c(N(Cc2ncc[nH]2)c2ccc3ncc(-c4cnn(C)c4)nc3n2)c1` [23-fumarate salt], the IC50 is 0.479 nM on FGFR1 (h) (setting [8]); 1.51 nM at FGFR2 (h) (setting [8]); approximately 0.891 nM at FGFR3 (h) (setting [8]); 0.794 nM at FGFR4 (h) (setting [8]); 5.13 nM at KDR (h) (setting [8]). Moreover, the “BAF3-FGFR1 (MIN IL3) pIC50” value in assay [1] amounted to 8.85. In addition, the “BAF3-FGFR1 (PLUS IL3) pIC50” value in assay [2] is recorded as less than 5. In addition, the “BAF3-FGFR3 (MIN IL3) pIC50” value in [3] is listed as approximately 8.67. Besides, the “BAF3-FGFR3 (PLUS IL3) pIC50” value in [4] is on record as less than 5. Also, the “BAF3-KDR (MIN IL3) pIC50” value in [5] came out at 6.67. Also, the “BAF3-KDR (PLUS IL3) pIC50” value in [6] is reported as less than 5. The “BAF3-FGFR4 pIC50” value in assay [7] came to 7.94.
